From article PMC3192012 (Biochemistry, 2011)

Legend:
[1] = biological target: T1, His6P4H1 (Dictyostelium discoideum, UniProt Q86KR9); assay: […]CO2-release assay with Skp1A; format: biochemical; conditions: read-out: % inhibition at 1 mM
[2] = biological target: T1, His6P4H1; assay: […]CO2-release assay with Skp1A; format: biochemical; conditions: 0.05 mM [1-14C]αKG, 5 µM Skp1A, 5 µM Fe(II), 1 mM ascorbate, pH 7.4, 29 °C, αKG antagonist

T1 sequence (Q86KR9 whole entry): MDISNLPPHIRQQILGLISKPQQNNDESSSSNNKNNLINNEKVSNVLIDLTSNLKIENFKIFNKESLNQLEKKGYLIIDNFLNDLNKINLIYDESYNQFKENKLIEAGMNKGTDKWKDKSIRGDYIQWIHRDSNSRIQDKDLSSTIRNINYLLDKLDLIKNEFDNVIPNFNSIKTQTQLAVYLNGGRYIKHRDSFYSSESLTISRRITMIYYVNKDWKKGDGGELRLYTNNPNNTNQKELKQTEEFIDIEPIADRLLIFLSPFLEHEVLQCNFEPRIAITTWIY

inhibition at 1000 µM [1] | SMILES | other results
50 to 70% | O=C(O)CCC(=O)O [succinate] | –
50 to 70% | O=C(O)CC(=O)C(=O)O [oxaloacetate] | –
50 to 70% | O=C(O)/C=C/C(=O)O [fumarate] | –

Continued, compound first:

SMILES | inhibition at 1000 µM [1] | other results
COC(=O)CNC(=O)C(=O)OC [DMOG] | – | % inhibition ([2]; EtOH carrier): the αKG antagonists DMOG and PCA, and CoCl2 (Fig. 1D)
O=C(O)c1ccc(O)c(O)c1 [PCA] | – | % inhibition [2]: the αKG antagonists DMOG and PCA, and CoCl2 (Fig. 1D)
